Patent publication EP4741395A1, “NOVEL COMPOUND SENSITIVE TO NITROGEN MONOXIDE AND PHARMACEUTICAL COMPOSITION COMPRISING SAME” (Omniamed Co. Ltd, priority 2023, dated 2025)

Legend:
[1] = DAF-2 assay of NO scavenging activity (NO donor SNAP); type: biochemical; details: DAF-2 10 µM, SNAP 100 µM, PBS, 3 hours, 37°C
Method: NO scavenging activity of the pharmaceutical composition sensitive to nitrogen monoxide including the compound according to each of Examples 1 to 22, 29 to 31, and 33 to 35 was evaluated through a DAF-2 assay.
Specifically, a reagent stock solution was made using DMSO (dimethyl sulfoxide) in order to prepare 5 mM of DAF-2, 100 mM of SNAP and 5 mM of the compound synthesized in each of the Examples, and for the reaction, the solution was added to a PBS (phosphate buffered saline) solution so that DAF-2, SNAP and the compound had final concentrations of 10 µM, 100 µM and the concentration of Table 1, respectively, followed by a reaction for 3 hours in a 37°C incubator.

[2] = tested on: Raw 264.7 cell line; assay: NO scavenging activity in LPS-treated immune cells (Griess reagent); type: cell-based; details: Mus musculus, RAW264.7, Raw 264.7, LPS 500 ng/mL, 24 hours, read-out: NO Scavenging Activity (%) (Mean±SD)
Method: Raw 264.7 cell line was seeded in a 48-well plate at a density of 8×10^4 cells/well, and cultured at 37°C in a DMEM medium including 10% FBS, 100 U/mL of penicillin and 100 µg/mL of streptomycin.
The medium was cultured overnight, and then replaced with a fresh medium including 10 µM of the pharmaceutical composition sensitive to nitrogen monoxide including the compound of each of Examples 1 to 30 and 500 ng/mL of LPS, and the fresh medium was cultured again for another 24 hours.
Lastly, in order to measure the amount of NO produced, the amount of NO2^- present in the cell culture medium was measured using a Griess reagent (sulfanilamide, N-1-naphthylethylenediamine dihydrochloride). Specifically, 100 µL of a Griess reagent was mixed with a mixture solution of 50 µL of the cell culture medium and 50 µL of PBS. The mixture solution was reacted for 10 minutes in a well plate, and absorbance thereof at 540 nm was measured.

[3] = tested on: splenocytes; assay: NO scavenging activity in Concanavalin A-treated splenocytes (Griess assay); type: cell-based, C57BL/6 mouse; details: Mus musculus, Splenocyte, Concanavalin A 5 µg/mL, 72 hours, read-out: NO Scavenging Activity (%) (Mean±SD)
Method: (§1) A spleen was isolated from an 8-week-old C57BL/6 mouse, and splenocytes were isolated using a physical method.
(§2) The separated splenocytes were diluted to a concentration of 5×10^6 cells/mL in a RPMI 1640 medium including 10% FBS, 100 U/mL of penicillin and 100 µg/mL of streptomycin, and the diluted splenocytes were dispensed at 500 µL/well into a 48-well plate and 100 µL/well into a 96-well plate, and cultured for 72 hours in an incubator. The splenocytes were treated with Concanavalin A (5 µg/mL) when dispensed to induce an immune response, and herein, […] of the pharmaceutical composition including the compound according to each of the Examples was also added thereto. After 72 hours, the supernatant was collected, and the level of remaining NO was checked through a Griess assay, and calculated by the following Equation 4.

[4] = tested on: IFN-γ; assay: IFN-γ reduction activity in Concanavalin A-treated splenocytes (quantitative ELISA); type: cell-based, C57BL/6 mouse; details: Mus musculus, Splenocyte, Concanavalin A 5 µg/mL, 72 hours, read-out: IFN-γ Reduction Activity (%) (Mean±SD)
Method: as §1, §2
NO is one of important inflammatory mediators, and may increase the level of inflammatory cytokine. Concanavalin A (5 µg/mL), which induces an immune response in splenocytes, and the compound of each of Examples were treated in a concentration-dependent manner to check whether the level of IFN-γ, a representative inflammatory cytokine, was reduced. The supernatant was collected 72 hours after the treatment, and analyzed using a quantitative enzyme-linked immunosorbent assay (Quantitative-ELISA).

[5] = tested on: splenocytes; assay: Inhibitory activity on cell proliferation in splenocytes (CCK-8 analysis); type: cell-based, C57BL/6 mouse; details: Mus musculus, Splenocyte, Concanavalin A 5 µg/mL, 72 hours, read-out: Inhibitory Activity on Cell Proliferation (%) (Mean±SD)
[6] = DAF-2 assay of NO scavenging activity without and with H2O2 (ROS); type: biochemical; details: SNAP 100 µM, DAF-2 10 µM, 3 hours, 37°C; for NO Scavenging Activity (%) (Mean±SD) With H2O2: H2O2 1 mM
Method: The pharmaceutical composition sensitive to nitrogen monoxide including the compound according to each of Examples 23 to 28 and 32 may have scavenging activity for reactive oxygen species (ROS). NO scavenging activity of the pharmaceutical composition was evaluated through a DAF-2 assay.
Specifically, to a 100 µM solution of SNAP, the compound synthesized in each of the Examples was added at a concentration of the following Table 2, and reacted. Then 10 µM of DAF-2 was added thereto, followed by a reaction for 3 hours in a 37°C incubator.
Additionally, a stock solution of H2O2 (10 M) was added to the reaction solution so that SNAP and H2O2 had final concentrations of 100 µM and 1 mM, respectively. Then, the compound synthesized in each of the Examples was added thereto at a concentration of the following Table 11, followed by a reaction in the same manner, and NO scavenging activity was calculated by Equation 1.

[7] = molecular target: JAK 1 (Homo sapiens, UniProt P23458); assay: JAK Human TK kinase enzymatic radiometric assay (Eurofins), JAK 1; details: value close to 100 indicates low JAK activity of the compound
JAK 1, sequence (P23458 whole entry): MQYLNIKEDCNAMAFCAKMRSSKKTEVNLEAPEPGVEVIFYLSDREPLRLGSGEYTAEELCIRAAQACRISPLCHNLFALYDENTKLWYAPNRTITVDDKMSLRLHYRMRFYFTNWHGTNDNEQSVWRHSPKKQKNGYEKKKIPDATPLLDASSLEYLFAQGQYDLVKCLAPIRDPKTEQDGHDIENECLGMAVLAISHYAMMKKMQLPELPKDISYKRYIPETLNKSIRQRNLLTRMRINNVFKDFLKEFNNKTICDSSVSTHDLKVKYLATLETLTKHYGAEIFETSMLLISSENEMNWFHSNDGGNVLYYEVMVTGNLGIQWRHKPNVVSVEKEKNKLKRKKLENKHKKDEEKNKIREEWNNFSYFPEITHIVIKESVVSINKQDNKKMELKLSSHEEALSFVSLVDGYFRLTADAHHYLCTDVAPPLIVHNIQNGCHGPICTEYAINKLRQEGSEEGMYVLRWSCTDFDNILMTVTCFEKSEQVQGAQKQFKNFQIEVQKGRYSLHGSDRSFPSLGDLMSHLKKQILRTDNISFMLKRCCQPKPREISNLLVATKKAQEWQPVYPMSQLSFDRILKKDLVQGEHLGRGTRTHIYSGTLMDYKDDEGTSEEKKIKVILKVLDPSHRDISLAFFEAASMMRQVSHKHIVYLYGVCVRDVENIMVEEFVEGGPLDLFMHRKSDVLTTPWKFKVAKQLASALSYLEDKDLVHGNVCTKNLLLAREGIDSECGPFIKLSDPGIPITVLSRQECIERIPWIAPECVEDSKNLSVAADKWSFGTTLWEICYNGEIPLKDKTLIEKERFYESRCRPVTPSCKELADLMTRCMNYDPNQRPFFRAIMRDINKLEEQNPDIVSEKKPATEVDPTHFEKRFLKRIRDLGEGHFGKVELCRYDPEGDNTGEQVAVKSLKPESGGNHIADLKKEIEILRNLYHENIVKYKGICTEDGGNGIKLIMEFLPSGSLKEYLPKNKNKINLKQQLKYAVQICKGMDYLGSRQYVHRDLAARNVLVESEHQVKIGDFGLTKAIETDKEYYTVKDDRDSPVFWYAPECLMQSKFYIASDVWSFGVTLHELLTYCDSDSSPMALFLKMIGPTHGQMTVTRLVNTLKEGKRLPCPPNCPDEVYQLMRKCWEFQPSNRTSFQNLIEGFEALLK
Description: For the compounds of the Examples, JAK activity of each of the compounds was verified using the JAK Human TK Kinase Enzymatic Radiometric Kinase Profiler Assay service provided by Eurofins Scientific.
The activity was verified after inducing a reaction at the JAK 1, 2 and 3 active sites using radioactively labeled ATP.

Compound	NO Scavenging Activity (%) (Mean±SD) ([1]; compound 1 µM)	NO Scavenging Activity (%) (Mean±SD) ([1]; compound 5 µM)	NO Scavenging Activity (%) (Mean±SD) ([1]; compound 10 µM)	activity at 10 µM [2] [%]	activity at 10 µM [3] [%]	activity at 10 µM [4] [%]	inhibition at 10 µM [5] [%]	NO Scavenging Activity (%) (Mean±SD) Without H2O2 ([6]; compound 1 µM)	NO Scavenging Activity (%) (Mean±SD) With H2O2 ([6]; compound 1 µM)	NO Scavenging Activity (%) (Mean±SD) Without H2O2 ([6]; compound 5 µM)	NO Scavenging Activity (%) (Mean±SD) With H2O2 ([6]; compound 5 µM)	NO Scavenging Activity (%) (Mean±SD) Without H2O2 ([6]; compound 10 µM)	NO Scavenging Activity (%) (Mean±SD) With H2O2 ([6]; compound 10 µM)	JAK 1 Activity ([7]; 0.1 nM)	JAK 1 Activity ([7]; 1 nM)	JAK 1 Activity ([7]; 10 nM)	JAK 1 Activity ([7]; 100 nM)
CC[C@@H]1CN(C(=O)NCC(F)(F)F)C[C@@H]1c1cnc2cnc3c(ccn3C(=O)Nc3ccccc3N)n12 [Example 29, N-(2-aminophenyl)-8-((3R,4S)-4-ethyl-1-((2,2,2-trifluoroethyl)carbamoyl)pyrrolidin-3-yl)-3H-imidazo[1,2-a]pyrrolo[2,3-e]pyrazine-3-carboxamide]	3.68± 7.63	1.71± 4.16	25.18 ±3.14	90.1 ± 0.74	88.5 ± 0.47	100	78 ± 6.9	–	–	–	–	–	–	–	–	–	–
C[C@@H]1CCN(C(=O)CC#N)C[C@@H]1N(C)c1ncnc2c1ccn2C(=O)N(C)CCN(C)C(=O)Nc1cc(N(C)C)ccc1NC(=O)OCc1ccc(B(O)O)cc1 [Example 23, (4-((((2-(3-(2-(4-(((3R,4R)-1-(2-cyanoacetyl)-4-methylpiperidin-3-yl)(methyl)amino)-N-methyl-7H-pyrrolo[2,3-d]pyrimidine-7-carboxamido)ethyl)-3-methylureido)-4-(dimethylamino)phenyl)carbamoyl)oxy)methyl)phenyl)boronic acid]	–	–	–	16.8 ± 0.7	19.5 ± 0.65	68 ± 0.45	11.8 ± 2.08	21.08 ±0.77	25.76 ±6.11	39.33 ±8.29	64.84 ±1.94	52.96 ±6.23	83.96 ±0.29	94	90	100	83
CC[C@@H]1CN(C(=O)NCC(F)(F)F)C[C@@H]1c1cnc2cnc3c(ccn3C(=O)Nc3ccc(N(C)C)cc3N)n12 [Example 30, N-(2-amino-4-(dimethylamino)phenyl)-8-((3R,4S)-4-ethyl-1-((2,2,2-trifluoroethyl)carbamoyl)pyrrolidin-3-yl)-3H-imidazo[1,2-a]pyrrolo[2,3-e]pyrazine-3-carboxamide]	83.14 ±2.29	86.44 ±1.93	88.19 ±1.75	91.6 ± 0.68	98.1 ± 0.09	91.5 ± 1.37	55 ± 8.48	–	–	–	–	–	–	–	–	–	–
COc1ccc(NC(=O)OCc2ccc(B3OC(C)(C)C(C)(C)O3)cc2)c(NC(=O)n2ccc3c(N(C)[C@H]4CN(C(=O)CC#N)CC[C@H]4C)ncnc32)c1 [Example 27, 4-(4,4,5,5-tetramethyl-1,3,2-dioxaborolan-2-yl)benzyl (2-(4-(((3R,4R)-1-(2-cyanoacetyl)-4-methylpiperidin-3-yl) (methyl)amino)-7H-pyrrolo[2,3-d]pyrimidine-7-carboxamido)-4-methoxyphenyl)carbamate]	–	–	–	59.3 ± 0.06	77.6 ± 1.24	74.6 ± 2.41	81.1 ± 9.03	–	–	–	–	59.31 ±0.55	97.09 ±0.01	–	–	–	–
C[C@@H]1CCN(C(=O)CC#N)C[C@@H]1N(C)c1ncnc2c1ccn2C(=O)N(C)CCN(C)C(=O)Nc1cc(N(C)C)ccc1N [Example 21, N-(2-(3-(2-amino-5-(dimethylamino)phenyl)-1-methylureido)ethyl)-4-(((3R,4R)-1-(2-cyanoacetyl)-4-methylpiperidin-3-yl) (methyl)amino)-N-methyl-7H-pyrrolo[2,3-d]pyrimidine-7-carboxamide]	2.57± 1.66	38.13 ±1.01	66.27 ±0.14	61.2 ± 0.15	52.4 ± 0.67	98.1 ± 0.03	48.3 ± 3.72	–	–	–	–	–	–	97	105	102	85
C[C@@H]1CCN(C(=O)CC#N)C[C@@H]1N(C)c1ncnc2c1ccn2C(=O)N(C)CCN(C)C(=O)Nc1cc2c(cc1NC(=O)OCc1ccc(B(O)O)cc1)n(C)c(=O)n2C [Example 24, (4-((((6-(3-(2-(4-(((3R,4R)-1-(2-cyanoacetyl)-4-methylpiperidin-3-yl)(methyl)amino)-N-methyl-7H-pyrrolo[2,3-d]pyrimidine-7-carboxamido)ethyl)-3-methylureido)-1,3-dimethyl-2-oxo-2,3-dihydro-1H-benzo[d]imidazol-5-yl)carbamoyl)oxy)methyl)phenyl)boronic acid]	–	–	–	9.8 ± 0.64	78.3 ± 0.5	95.5 ± 0.15	67.2 ± 4.67	16.43 ±4.86	34.66 ±3.80	27.84 ±7.68	43.58 ±6.00	40.54 ±3.96	53.52 ±3.09	–	–	–	–
Cc1ccc(NC(=O)OCc2ccc(B3OC(C)(C)C(C)(C)O3)cc2)c(NC(=O)n2ccc3c(N(C)[C@H]4CN(C(=O)CC#N)CC[C@H]4C)ncnc32)c1 [Example 26, 4-(4,4,5,5-tetramethyl-1,3,2-dioxaborolan-2-yl)benzyl (2-(4-(((3R,4R)-1-(2-cyanoacetyl)-4-methylpiperidin-3-yl) (methyl)amino)-7H-pyrrolo[2,3-d]pyrimidine-7-carboxamido)-4-methylphenyl)carbamate]	–	–	–	73.7 ± 0.33	100	97.4 ± 0.1	75.6 ± 0.96	–	–	–	–	42.98 ±2.51	92.96 ±0.04	–	–	–	–
